The values below come from US10940159B2, “Combination immediate/delayed release delivery system for short half-life pharmaceuticals including remogliflozin” (priority 2010, dated 2021).

Read-outs that look alike come from different tables or passages of the source.

Data set [1] in a line: Half-life, absorption window and permeability. The class given is in vivo. The following applies: for half-life: human.
A short description of data set [2]: 12 week clinical studies in T2DM, once daily and twice daily dosing. The class given is in vivo, human. The text has this:
To date, studies have assessed the efficacy, safety and tolerability up to 12 weeks, with varying efficacy so there is a need to characterize the profile of a number of selected formulated doses over a 12-week period. […] However to minimize the time which subjects may have sub-optimal glycemic control, the double blind study medication has been limited to 12 weeks duration. In addition, criteria have been included to allow the introduction of rescue therapy after 6 weeks for those subjects who have a high FP. […] Furthermore, there is evidence that at these doses, there may also be clinically relevant weight loss, a key requirement for new T2DM therapies (20). As doses above 250 mg BID may be associated with relatively small incremental benefits on glycemia and weight loss and there is a trend for better tolerability at lower doses, future studies could have total daily doses less than 500 mg per day. […] It is believed that the primary mechanism for this isolated increase in LDL-c is due a combination of 1) hemoconcentration as a result of the diurectic effect, similar to that seen with diuretics (21, 22) and 2) SGLT2 overnight inhibition. […] Further, a combination IR/SR dose given QD in the morning may also provide meaningful benefits on glycemia and weight loss. From a safety perspective, other than small effects observed on the lipid profile and hematocrit, there was little difference in the safety profile based on the frequency of administration.

The conditions of data set [3]: reduced from 9.0%; at mealtime in combination with a sulfonylurea; P<0.0001; cited from earlier work.

The term half-life denotes the time needed for the level to fall by half in the phase considered.

In the case of `CCOC(=O)OC[C@H]1O[C@@H](Oc2nn(C(C)C)c(C)c2Cc2ccc(OC(C)C)cc2)[C@H](O)[C@@H](O)[C@@H]1O` [remogliflozin etabonate, 5-methyl-4-[4-(1-methylethoxy)benzyl]-1-(1-methylethyl)-1H-pyrazol-3-yl 6-O-(ethoxycarbonyl)-β-D-glucopyranoside], in data set [1] (in vivo, read-out: half-life (t½) (converted)), the half-life is 1.5 h. Further, the “permeability in the lower portion of the gastrointestinal tract” value in data set [1] (in vivo) is on record as “intrinsically poor permeability”.

Regarding `Cc1c(Cc2ccc(OC(C)C)cc2)c(O[C@@H]2O[C@H](CO)[C@@H](O)[C@H](O)[C@H]2O)nn1C(C)C` [remogliflozin], the half-life is 1.5 to 2 h in data set [1] (in vivo, read-out: half-life) and 1.5 h in data set [1] (plasma, read-out: half-life (t½) (converted)). Besides, the “permeability in the lower portion of the gastrointestinal tract” value in data set [1] (in vivo) is on record as “poor permeability”. The compound further gave a window of absorption in data set [1] (upper gastrointestinal tract, depending upon food intake, individual differences) of 3 to 6 h. Also, the LDL-c entry is “significant increases” in data set [2] (250 mg and 500 mg bid doses); “no corresponding increases” in data set [2] (higher QD doses). Besides, the “hematocrit (surrogate marker for hemoconcentration)” value in data set [2] (higher QD doses) is reported as “increases in hematocrit”. Moreover, the hypoglycemic events entry in data set [2] (human, in vivo) is given as “very little evidence”.

For “insulin lispro: rapid-acting insulin analog”, the A1C levels in data set [3] is 7.1%.
